Tests used:
[1] = test system: Phakopsora pachyrhizi (F129L); test: Protective control of soybean rust on soybeans (PHAKPA P2); type: in vivo; details: for % PHAKPA (F129L) Disease level P2 at 4 ppm: protective P2, 4 ppm; for % PHAKPA (F129L) Disease level P2 at 4 ppm / % PHAKPA (F129L) Disease level P2 at 16 ppm: soybean rust F129L; for % PHAKPA (F129L) Disease level P2 at 16 ppm: protective P2, 16 ppm; for PHAKPA (F129L) Disease level (%) P2 at 16 ppm: P2 protective, % diseased leaf area
[2] = test system: Phakopsora pachyrhizi (F129L); test: Protective control of soybean rust on soybeans (PHAKPA P6); type: in vivo; details: for % PHAKPA (F129L) Disease level P6 at 4 ppm: protective P6, 4 ppm; for % PHAKPA (F129L) Disease level P6 at 4 ppm / % PHAKPA (F129L) Disease level P6 at 16 ppm: soybean rust F129L; for % PHAKPA (F129L) Disease level P6 at 16 ppm: protective P6, 16 ppm; for PHAKPA (F129L) Disease level (%) P6 at 16 ppm: P6 protective, % diseased leaf area

Row | SMILES | % PHAKPA (F129L) Disease level P2 at 4 ppm [1] [%] | % PHAKPA (F129L) Disease level P2 at 16 ppm [1] [%] | % PHAKPA (F129L) Disease level P6 at 4 ppm [2] [%] | % PHAKPA (F129L) Disease level P6 at 16 ppm [2] [%] | PHAKPA (F129L) Disease level (%) P2 at 16 ppm [1] [%] | PHAKPA (F129L) Disease level (%) P6 at 16 ppm [2] [%]
1 | CO/N=C(/C(=O)OC)c1cccc(C)c1CO/N=C(\C)c1ccccc1Br [compound 119] | 93 | 63 | 92 | 63 |  | 
2 | CNC(=O)/C(=N/OC)c1cccc(C)c1CO/N=C(\C)c1cccc(-c2cc(C)on2)c1 [compound 42] | 60 | 23 | 60 | 20 |  | 
3 | CO/N=C(/C(=O)OC)c1cccc(C)c1CO/N=C(\C)c1cccc(-c2cc(C)on2)c1 [compound 43] | 100 | 100 | 97 | 87 |  | 
4 | CO/N=C(/C(=O)OC)c1cccc(C)c1CO/N=C(\C)c1cc(F)ccc1F [compound 118] | 10 | 0 | 32 | 0 |  | 
5 | CNC(=O)/C(=N/OC)c1cccc(C)c1CO/N=C(\C)c1cc(C)cc(C)c1 [compound 99] | 43 | 12 | 87 | 33 |  | 
6 | CNC(=O)/C(=N/OC)c1ccccc1CO/N=C(\C)c1cccc(N2CC(F)(F)C2)c1 [reference compound] |  |  |  |  | 70 | 53
7 | CO/N=C(/C(=O)OC)c1cccc(C)c1CO/N=C(\C)c1cc(F)ccc1C(F)(F)F [compound 249] | 87 | 37 | 90 | 43 |  | 
8 | CO/N=C(/C(=O)OC)c1cccc(C)c1CO/N=C(\C)c1cccc(C(C)C)c1 [compound 95] | 11 | 0 | 33 | 4 |  | 
9 | CO/N=C(/C(=O)OC)c1cccc(C)c1CO/N=C(\C)c1ccccc1OC(F)F [compound 253] | 100 | 87 | 100 | 57 |  | 
10 | CNC(=O)/C(=N/OC)c1cccc(C)c1CO/N=C(\C)c1cc(C)ccc1C [compound 278] | 90 | 60 | 90 | 93 |  | 
11 | CO/N=C(/C(=O)OC)c1cccc(C)c1CO/N=C(\C)c1cccc(OC(F)F)c1 [compound 80] | 50 | 10 | 30 | 3 |  | 
12 | CNC(=O)/C(=N/OC)c1cccc(C)c1CO/N=C(/c1ccc(Cl)cc1)C(F)F [compound 22] | 100 | 90 | 100 | 93 |  | 
13 | CNC(=O)/C(=N/OC)c1cccc(C)c1CO/N=C(\C)c1ccccc1OC [Ex. 126] | 87 | 34 | 95 | 70 | 32 | 60
14 | CO/C=C(/C(=O)OC)c1cccc(C)c1CO/N=C(\C)c1ccc(C)cc1C(F)(F)F [compound 446] | 2 | 0 | 6 | 0 |  | 
15 | CCc1ccccc1/C(C)=N/OCc1c(C)cccc1/C(=N\OC)C(=O)OC [compound 175] | 100 | 97 | 100 | 93 |  | 
16 | CNC(=O)/C(=N/OC)c1cccc(C)c1CO/N=C(\C)c1cc(C(F)(F)F)ccc1Cl [compound 190] | 20 | 0 | 45 | 3 |  | 
17 | CO/N=C(/C(=O)OC)c1cccc(C)c1CO/N=C(\C)c1cc(C#N)cc(C(F)(F)F)c1 [compound 48] | 100 | 80 | 100 | 67 |  | 
18 | CNC(=O)/C(=N/OC)c1cccc(C2CC2)c1CO/N=C(\C)c1cccc(C(F)(F)F)c1 [Ex. 11] | 23 | 1 | 20 | 0 |  | 
19 | CO/C=C(/C(=O)OC)c1cccc(C)c1CO/N=C(\C)c1ccc(-c2ccc(F)cc2)cc1C(F)(F)F [compound 432] | 12 | 0 | 13 | 3 |  | 
20 | CNC(=O)/C(=N/OC)c1cccc(C)c1CO/N=C(\C)c1ccccc1F [Ex. 2, (2E)-2-[2-[[(E)-1-(2-fluorophenyl)ethylideneamino]oxymethyl]-3-methyl-phenyl]-2-methoxyimino-N-methyl-acetamide] | 5 | 0 | 26 | 1 |  | 
21 | CNC(=O)/C(=N/OC)c1cccc(C)c1CO/N=C(\C)c1cc(C#N)cc(C(F)(F)F)c1 [compound 46] | 63 | 50 | 90 | 57 |  | 
22 | CNC(=O)/C(=N/OC)c1cccc(C)c1CO/N=C(\C)c1ccccc1CC(C)C [compound 221] | 100 | 63 | 100 | 100 |  | 
